{"source": "ChEMBL document CHEMBL1201862", "about": "“PubChem BioAssay data set” (2004)", "key": {"[1]": {"biological_target": "T1, Endoribonuclease toxin MazF (Escherichia coli K-12, UniProt P0AE70)", "T1 sequence (P0AE70 whole entry)": "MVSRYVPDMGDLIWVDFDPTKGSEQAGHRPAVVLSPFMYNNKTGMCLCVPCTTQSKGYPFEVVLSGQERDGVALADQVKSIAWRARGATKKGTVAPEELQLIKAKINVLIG", "test": "substrate-only fluorescence increase artefacts – biochemical, single-stranded RNase substrate, counter-screen for MazEF activator project, dose response (AID 588502)", "format": "functional"}, "[2]": {"biological_target": "T1, Endoribonuclease toxin MazF", "test": "activation of MazEF endoribonuclease cleavage – biochemical, fluorescence, single-stranded RNA substrate, uHTS hits, dose response (AID 588481)", "format": "functional"}, "Coagulation factor XII": {"biological_target": "T2, Coagulation factor XII (Homo sapiens, UniProt P00748)", "T2 sequence (P00748 whole entry)": "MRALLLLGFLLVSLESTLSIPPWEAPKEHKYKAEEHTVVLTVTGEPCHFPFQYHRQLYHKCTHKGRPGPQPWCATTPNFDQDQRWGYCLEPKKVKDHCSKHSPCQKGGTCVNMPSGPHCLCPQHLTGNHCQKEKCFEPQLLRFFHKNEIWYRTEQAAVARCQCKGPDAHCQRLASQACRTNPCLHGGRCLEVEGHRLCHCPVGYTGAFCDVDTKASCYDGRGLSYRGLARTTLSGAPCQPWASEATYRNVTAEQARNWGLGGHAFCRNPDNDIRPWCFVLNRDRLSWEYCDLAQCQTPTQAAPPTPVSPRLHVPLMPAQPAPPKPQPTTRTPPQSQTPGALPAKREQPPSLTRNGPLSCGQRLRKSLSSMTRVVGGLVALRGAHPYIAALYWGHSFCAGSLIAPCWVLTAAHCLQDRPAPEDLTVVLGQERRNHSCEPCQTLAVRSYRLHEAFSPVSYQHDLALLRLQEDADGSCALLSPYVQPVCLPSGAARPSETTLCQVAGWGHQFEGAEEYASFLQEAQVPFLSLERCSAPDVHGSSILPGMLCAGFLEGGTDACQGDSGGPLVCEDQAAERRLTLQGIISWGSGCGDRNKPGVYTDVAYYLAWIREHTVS", "format": "functional"}, "[3]": {"biological_target": "T3, Zinc finger protein mex-5 (Caenorhabditis elegans, UniProt Q9XUB2)", "T3 sequence (Q9XUB2 whole entry)": "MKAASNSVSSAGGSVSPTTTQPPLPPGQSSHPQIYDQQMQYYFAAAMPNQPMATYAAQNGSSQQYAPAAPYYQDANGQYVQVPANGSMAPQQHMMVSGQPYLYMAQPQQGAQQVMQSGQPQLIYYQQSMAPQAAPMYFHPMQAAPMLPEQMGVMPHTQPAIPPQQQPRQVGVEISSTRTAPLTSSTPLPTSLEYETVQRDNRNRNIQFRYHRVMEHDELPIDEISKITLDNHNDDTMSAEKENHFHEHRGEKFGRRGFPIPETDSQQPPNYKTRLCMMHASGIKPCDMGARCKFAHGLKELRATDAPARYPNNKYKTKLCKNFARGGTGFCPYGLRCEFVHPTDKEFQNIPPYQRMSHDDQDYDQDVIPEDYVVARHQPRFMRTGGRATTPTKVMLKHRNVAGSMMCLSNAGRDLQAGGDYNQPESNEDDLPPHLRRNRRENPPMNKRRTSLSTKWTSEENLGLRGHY", "test": "potency of MEX-5 RNA-binding blockers – biochemical, C. elegans, fluorescence polarization, dose response (AID 1960)"}, "[4]": {"biological_target": "T4, RNA-binding protein pos-1 (Caenorhabditis elegans, UniProt G5EF15)", "T4 sequence (G5EF15 whole entry)": "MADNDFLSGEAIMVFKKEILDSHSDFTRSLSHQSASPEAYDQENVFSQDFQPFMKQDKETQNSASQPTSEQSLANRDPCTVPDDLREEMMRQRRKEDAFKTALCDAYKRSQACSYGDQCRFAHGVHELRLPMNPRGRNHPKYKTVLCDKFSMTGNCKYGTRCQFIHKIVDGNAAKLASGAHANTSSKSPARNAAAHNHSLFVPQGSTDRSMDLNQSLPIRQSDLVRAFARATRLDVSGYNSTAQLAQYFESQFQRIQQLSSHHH", "test": "disruptors of C. elegans POS-1 RNA interaction – biochemical, fluorescence polarization, dose response (AID 1964);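 also: purified POS-1 fused to maltose binding protein made in E. coli; potency of compounds blocking POS-1 binding to fluorescent RNA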"}, "Melanocortin receptor 4": {"biological_target": "Melanocortin receptor 4 (Homo sapiens, UniProt P32245)", "sequence (P32245 whole entry)": "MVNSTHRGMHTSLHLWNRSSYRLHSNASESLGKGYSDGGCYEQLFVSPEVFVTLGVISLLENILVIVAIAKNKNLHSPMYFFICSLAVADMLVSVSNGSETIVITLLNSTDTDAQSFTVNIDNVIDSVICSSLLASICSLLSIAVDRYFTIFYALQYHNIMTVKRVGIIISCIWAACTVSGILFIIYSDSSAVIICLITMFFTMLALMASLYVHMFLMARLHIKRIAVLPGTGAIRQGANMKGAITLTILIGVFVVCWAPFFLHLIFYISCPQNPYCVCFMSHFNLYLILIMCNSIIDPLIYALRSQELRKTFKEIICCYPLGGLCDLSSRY", "format": "functional, cell-based"}, "H9c2": {"test_system": "H9c2", "test": "cells", "format": "functional, cell-based", "settings": "Rattus norvegicus, H9c2, Myocardium"}, "[5]": {"biological_target": "T5, Heat shock factor protein 1 (Mus musculus, UniProt P38532)", "T5 sequence (P38532 whole entry)": "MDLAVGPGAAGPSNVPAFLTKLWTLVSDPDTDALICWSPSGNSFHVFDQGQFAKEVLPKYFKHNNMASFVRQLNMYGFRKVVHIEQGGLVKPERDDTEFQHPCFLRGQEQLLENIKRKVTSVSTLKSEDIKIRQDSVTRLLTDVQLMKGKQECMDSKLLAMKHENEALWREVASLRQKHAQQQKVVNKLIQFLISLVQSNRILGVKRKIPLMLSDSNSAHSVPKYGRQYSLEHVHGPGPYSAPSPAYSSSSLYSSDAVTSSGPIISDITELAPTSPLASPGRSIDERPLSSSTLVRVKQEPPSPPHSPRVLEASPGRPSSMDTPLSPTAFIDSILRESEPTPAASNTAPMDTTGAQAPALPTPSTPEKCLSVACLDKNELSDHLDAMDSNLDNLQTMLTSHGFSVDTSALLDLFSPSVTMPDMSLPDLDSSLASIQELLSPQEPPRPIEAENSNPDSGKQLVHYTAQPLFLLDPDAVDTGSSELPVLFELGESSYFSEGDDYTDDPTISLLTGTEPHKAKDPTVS", "test": "decrease of HSF1-responsive luciferase luminescence – cell-based, NIH3T3, dose retest, confirmation (AID 2382);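 also: NIH3T3 fibroblasts with HSF1-driven luciferase reporter stressed by proteasome inhibitor MG132; luminescence from HSF1-driven luciferase expression after 8 hours of MG132 stress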", "format": "functional"}, "[6]": {"biological_target": "Glyceraldehyde-3-phosphate dehydrogenase (Homo sapiens, UniProt P04406)", "sequence (P04406 whole entry)": "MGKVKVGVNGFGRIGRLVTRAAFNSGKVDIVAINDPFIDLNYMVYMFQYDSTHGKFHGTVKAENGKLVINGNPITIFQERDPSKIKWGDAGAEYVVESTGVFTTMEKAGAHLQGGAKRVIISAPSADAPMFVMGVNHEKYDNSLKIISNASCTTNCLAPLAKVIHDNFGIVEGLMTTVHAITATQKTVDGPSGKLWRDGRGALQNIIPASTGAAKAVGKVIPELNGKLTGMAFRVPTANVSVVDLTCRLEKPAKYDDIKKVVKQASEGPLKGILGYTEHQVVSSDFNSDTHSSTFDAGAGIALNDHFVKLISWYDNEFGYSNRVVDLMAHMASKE"}, "[7]": {"biological_target": "T6, Alkaline phosphatase, tissue-nonspecific isozyme (Homo sapiens, UniProt P05186)", "T6 sequence (P05186 whole entry)": "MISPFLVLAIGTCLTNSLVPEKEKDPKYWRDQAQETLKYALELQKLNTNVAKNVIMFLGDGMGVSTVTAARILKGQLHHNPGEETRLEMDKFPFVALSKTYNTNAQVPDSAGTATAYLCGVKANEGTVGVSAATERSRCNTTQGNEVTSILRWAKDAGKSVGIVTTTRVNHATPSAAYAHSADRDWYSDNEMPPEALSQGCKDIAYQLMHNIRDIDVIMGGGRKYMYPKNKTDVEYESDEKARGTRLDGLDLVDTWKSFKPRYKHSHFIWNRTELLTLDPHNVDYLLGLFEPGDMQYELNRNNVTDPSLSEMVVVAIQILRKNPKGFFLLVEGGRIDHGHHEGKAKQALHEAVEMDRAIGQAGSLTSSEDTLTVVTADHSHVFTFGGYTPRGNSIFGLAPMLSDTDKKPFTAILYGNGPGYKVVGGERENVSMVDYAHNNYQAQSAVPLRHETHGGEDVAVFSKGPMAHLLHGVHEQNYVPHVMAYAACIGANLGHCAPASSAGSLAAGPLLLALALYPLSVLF", "test": "potency against alkaline phosphatase TNAP – biochemical, luminescent, dose response, SAR follow-up (AID 1056)"}, "Protein Wnt-3a": {"biological_target": "Protein Wnt-3a (Mus musculus, UniProt P27467)", "sequence (P27467 whole entry)": "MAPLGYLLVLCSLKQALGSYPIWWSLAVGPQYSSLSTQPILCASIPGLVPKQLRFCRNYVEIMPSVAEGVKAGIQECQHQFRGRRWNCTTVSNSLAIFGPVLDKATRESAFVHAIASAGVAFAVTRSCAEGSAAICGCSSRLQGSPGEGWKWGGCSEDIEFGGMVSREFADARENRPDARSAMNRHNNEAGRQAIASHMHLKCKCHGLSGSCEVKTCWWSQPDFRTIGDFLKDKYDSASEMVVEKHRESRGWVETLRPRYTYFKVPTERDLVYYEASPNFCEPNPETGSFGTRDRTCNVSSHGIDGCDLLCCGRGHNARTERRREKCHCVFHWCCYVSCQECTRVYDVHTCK", "test": "antagonism of Wnt3a pathway luciferase reporter – Wnt-LIGHT cells, luminescence, selectivity assay for Gli-SUFU antagonist project, dose response (AID 651570);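 also: Wnt-LIGHT reporter cells stimulated with conditioned medium from Wnt3a-producing cells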", "format": "functional", "settings": "read-out: IC50_Mean"}, "[8]": {"test": "Luminescence Cell-Based Dose Retest to Confirm Inhibitors of Cancer Stem Cells. [Related pubchem assays (depositor defined):AID2717, AID2721]", "format": "functional", "settings": "Homo sapiens"}, "Cytochrome P450 3A4": {"biological_target": "Cytochrome P450 3A4 (Homo sapiens, UniProt P08684)", "sequence (P08684 whole entry)": "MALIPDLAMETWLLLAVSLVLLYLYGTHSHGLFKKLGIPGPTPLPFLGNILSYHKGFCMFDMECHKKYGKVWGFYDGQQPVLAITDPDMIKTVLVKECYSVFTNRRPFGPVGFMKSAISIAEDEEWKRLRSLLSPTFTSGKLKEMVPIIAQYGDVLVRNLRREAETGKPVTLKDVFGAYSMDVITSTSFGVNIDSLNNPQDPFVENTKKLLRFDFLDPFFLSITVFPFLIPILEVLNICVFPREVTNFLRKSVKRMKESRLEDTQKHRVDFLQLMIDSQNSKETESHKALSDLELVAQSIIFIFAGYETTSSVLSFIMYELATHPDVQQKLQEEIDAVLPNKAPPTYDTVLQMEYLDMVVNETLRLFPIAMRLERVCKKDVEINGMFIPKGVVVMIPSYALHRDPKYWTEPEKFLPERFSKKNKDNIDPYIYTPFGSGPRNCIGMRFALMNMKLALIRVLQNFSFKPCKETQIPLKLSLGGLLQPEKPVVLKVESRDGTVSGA"}, "Cytochrome P450 2C9": {"biological_target": "Cytochrome P450 2C9 (Homo sapiens, UniProt P11712)", "sequence (P11712 whole entry)": "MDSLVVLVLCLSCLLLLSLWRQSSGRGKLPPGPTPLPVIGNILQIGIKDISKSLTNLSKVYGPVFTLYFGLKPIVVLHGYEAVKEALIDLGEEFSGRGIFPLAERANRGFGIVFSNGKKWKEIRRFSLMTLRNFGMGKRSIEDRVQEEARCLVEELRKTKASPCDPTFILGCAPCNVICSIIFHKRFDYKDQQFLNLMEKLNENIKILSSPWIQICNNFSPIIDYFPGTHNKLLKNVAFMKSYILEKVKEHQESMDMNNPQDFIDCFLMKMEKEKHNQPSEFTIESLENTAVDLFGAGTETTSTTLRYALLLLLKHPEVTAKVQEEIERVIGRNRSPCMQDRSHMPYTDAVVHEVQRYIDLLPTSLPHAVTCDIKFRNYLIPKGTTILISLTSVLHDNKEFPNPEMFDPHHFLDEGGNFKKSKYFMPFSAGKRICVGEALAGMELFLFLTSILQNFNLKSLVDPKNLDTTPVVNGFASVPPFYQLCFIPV"}, "Cytochrome P450 2D6": {"biological_target": "Cytochrome P450 2D6 (Homo sapiens, UniProt P10635)", "sequence (P10635 whole entry)": "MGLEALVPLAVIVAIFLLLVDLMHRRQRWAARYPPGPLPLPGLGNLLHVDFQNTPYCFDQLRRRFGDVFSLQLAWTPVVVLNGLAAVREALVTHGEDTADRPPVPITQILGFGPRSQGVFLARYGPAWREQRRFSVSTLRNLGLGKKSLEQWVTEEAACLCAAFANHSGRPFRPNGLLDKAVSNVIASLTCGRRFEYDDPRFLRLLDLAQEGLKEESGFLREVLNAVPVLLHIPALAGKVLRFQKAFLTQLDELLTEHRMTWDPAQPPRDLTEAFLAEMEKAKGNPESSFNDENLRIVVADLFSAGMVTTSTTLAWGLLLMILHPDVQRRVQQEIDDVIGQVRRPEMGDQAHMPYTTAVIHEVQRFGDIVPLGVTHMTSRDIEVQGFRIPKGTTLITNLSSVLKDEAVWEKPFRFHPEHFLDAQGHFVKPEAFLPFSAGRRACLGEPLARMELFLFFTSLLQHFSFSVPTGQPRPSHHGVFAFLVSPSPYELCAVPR"}}, "note": "The source made the active and inactive calls.", "data": [{"smiles": "CCN(CC)S(=O)(=O)c1ccc(Cl)c(NC(=O)c2cc(Cl)ccc2Cl)c1", "values": [{"measurement": "EC50", "setting": "[1]", "value": "> 99 µM (inactive)"}, {"measurement": "EC50", "setting": "[2]", "value": "> 99 µM (inactive)"}]}, {"smiles": "Cc1cc(C)n(/N=C/c2ccccc2)c(=O)c1C#N", "values": [{"measurement": "IC50", "setting": "Coagulation factor XII", "value": "> 50 µM (inactive)"}]}, {"smiles": "CCOC(=O)Cc1csc(NC(=O)c2sc3nc4cc(C)ccc4cc3c2N)n1", "values": [{"measurement": "EC50", "setting": "[3]", "value": "1.62 µM (inconclusive)"}, {"measurement": "EC50", "setting": "[4]", "value": "27.2 µM (inconclusive)"}, {"measurement": "EC50", "setting": "Melanocortin receptor 4", "value": "> 89.2 µM (inactive)"}]}, {"smiles": "Cc1cc(O)c(/C=N/c2ccc(N3CCOCC3)cc2)c(C)c1Cl", "values": [{"measurement": "EC50", "setting": "[1]", "value": "> 99 µM (inactive)"}, {"measurement": "IC50", "setting": "H9c2", "value": "> 79 µM (inactive)"}, {"measurement": "EC50", "setting": "[5]", "value": "> 195 µM (not active)"}, {"measurement": "EC50", "setting": "[2]", "value": "53.5 µM (inactive)"}]}, {"smiles": "CCOC(=O)c1cc(-c2ccc(Cl)cc2)n[nH]1", "values": [{"measurement": "IC50", "setting": "[6]", "value": "> 100 µM (not active)"}, {"measurement": "IC50", "setting": "[7]", "value": "2.35 µM (active)"}]}, {"smiles": "O=S(=O)(NCc1ccncc1)c1ccc(S(=O)(=O)NCC2CCCO2)cc1", "note": "(configuration not stated)", "values": [{"measurement": "IC50", "setting": "Protein Wnt-3a", "value": "7.09 µM (active)"}, {"measurement": "AC50", "setting": "[8]", "value": "0.973 µM (active)"}]}, {"smiles": "C/C=C1\\C(=O)C[C@@H]2[C@@H]3CCC4=CC(=O)CC[C@@]4(C)[C@H]3CC[C@@]12C", "values": [{"measurement": "AC50", "setting": "Cytochrome P450 3A4", "value": "inconclusive"}, {"measurement": "AC50", "setting": "Cytochrome P450 2C9", "value": "39.8 µM (inconclusive)"}]}, {"smiles": "NC1=Nc2ccccc2Oc2ccccc21", "values": [{"measurement": "AC50", "setting": "Cytochrome P450 3A4", "value": "inconclusive"}, {"measurement": "AC50", "setting": "Cytochrome P450 2D6", "value": "20 µM (inconclusive)"}]}, {"smiles": "O=S(=O)(Nc1ccc2ncccc2c1)c1cc(Cl)ccc1Cl", "values": [{"measurement": "IC50", "setting": "[6]", "value": "> 100 µM (not active)"}, {"measurement": "IC50", "setting": "[7]", "value": "> 100 µM (inactive)"}]}, {"smiles": "Cc1ccc(-c2cc(C(=O)O)[nH]n2)c(C)c1", "values": [{"measurement": "IC50", "setting": "[6]", "value": "> 100 µM (not active)"}, {"measurement": "IC50", "setting": "[7]", "value": "3.34 µM (active)"}]}]}
